± gives the expanded uncertainty stated by the source.
Experiment: mn = molality of the nth substance listed, in mol/kg
Conditions: 100 kPa, Liquid; for electrical conductivity: Alternating current cell with electrodes; for viscosity: Falling or rolling sphere viscometry; for mass density: Vibrating tube method

## CCC(=O)OCCN1CCNCC1 [2-(piperazin-1-yl)ethyl propionate] + CO
318.15 K, m1 = 2
  electrical conductivity: 0.932 ± 0.009 S/m
  viscosity: 1.922 ± 0.024 mPa·s
  mass density: 894.99 ± 0.13 kg/m3
318.15 K, m1 = 2.203
  electrical conductivity: 0.874 ± 0.009 S/m
  viscosity: 2.355 ± 0.029 mPa·s
  mass density: 909.04 ± 0.13 kg/m3
318.15 K, m1 = 2.403
  electrical conductivity: 0.809 ± 0.008 S/m
  viscosity: 2.99 ± 0.037 mPa·s
  mass density: 922.36 ± 0.12 kg/m3
318.15 K, m1 = 2.603
  electrical conductivity: 0.724 ± 0.007 S/m
  viscosity: 3.793 ± 0.047 mPa·s
  mass density: 935.25 ± 0.12 kg/m3
318.15 K, m1 = 2.803
  electrical conductivity: 0.656 ± 0.007 S/m
  viscosity: 4.897 ± 0.061 mPa·s
  mass density: 948.64 ± 0.12 kg/m3
318.15 K, m1 = 3.006
  electrical conductivity: 0.583 ± 0.006 S/m
318.15 K, m1 = 0.05
  viscosity: 0.459 ± 0.006 mPa·s
  mass density: 770.7 ± 0.16 kg/m3
318.15 K, m1 = 0.1001
  viscosity: 0.468 ± 0.006 mPa·s
  mass density: 773.8 ± 0.16 kg/m3
318.15 K, m1 = 0.2006
  viscosity: 0.493 ± 0.006 mPa·s
  mass density: 779.98 ± 0.16 kg/m3
318.15 K, m1 = 0.3003
  viscosity: 0.521 ± 0.006 mPa·s
  mass density: 786.11 ± 0.15 kg/m3
318.15 K, m1 = 0.3995
  viscosity: 0.55 ± 0.007 mPa·s
  mass density: 792.25 ± 0.15 kg/m3
318.15 K, m1 = 0.5005
  viscosity: 0.584 ± 0.007 mPa·s
  mass density: 798.42 ± 0.15 kg/m3
318.15 K, m1 = 0.6006
  viscosity: 0.622 ± 0.008 mPa·s
  mass density: 804.74 ± 0.15 kg/m3
318.15 K, m1 = 0.7007
  viscosity: 0.66 ± 0.008 mPa·s
  mass density: 811.06 ± 0.15 kg/m3
318.15 K, m1 = 0.8007
  viscosity: 0.708 ± 0.009 mPa·s
  mass density: 817.27 ± 0.15 kg/m3
318.15 K, m1 = 0.9008
  viscosity: 0.759 ± 0.009 mPa·s
  mass density: 823.51 ± 0.14 kg/m3
318.15 K, m1 = 1.001
  viscosity: 0.814 ± 0.01 mPa·s
  mass density: 829.66 ± 0.14 kg/m3
318.15 K, m1 = 1.2
  viscosity: 0.935 ± 0.012 mPa·s
  mass density: 842.24 ± 0.14 kg/m3
318.15 K, m1 = 1.401
  viscosity: 1.102 ± 0.014 mPa·s
  mass density: 855.48 ± 0.14 kg/m3
318.15 K, m1 = 1.6
  viscosity: 1.306 ± 0.016 mPa·s
  mass density: 868.17 ± 0.13 kg/m3
318.15 K, m1 = 1.801
  viscosity: 1.571 ± 0.019 mPa·s
  mass density: 881.62 ± 0.13 kg/m3
318.15 K, m1 = 3.001
  viscosity: 6.668 ± 0.082 mPa·s
  mass density: 962.47 ± 0.12 kg/m3
323.15 K, m1 = 0.05
  electrical conductivity: 0.148 ± 0.0015 S/m
  viscosity: 0.437 ± 0.005 mPa·s
  mass density: 765.85 ± 0.16 kg/m3
323.15 K, m1 = 0.1001
  electrical conductivity: 0.244 ± 0.003 S/m
  viscosity: 0.445 ± 0.006 mPa·s
  mass density: 768.95 ± 0.16 kg/m3
323.15 K, m1 = 0.2006
  electrical conductivity: 0.406 ± 0.004 S/m
  viscosity: 0.467 ± 0.006 mPa·s
  mass density: 775.15 ± 0.16 kg/m3
323.15 K, m1 = 0.3003
  electrical conductivity: 0.529 ± 0.005 S/m
  viscosity: 0.492 ± 0.006 mPa·s
  mass density: 781.29 ± 0.16 kg/m3
323.15 K, m1 = 0.3995
  electrical conductivity: 0.625 ± 0.006 S/m
  viscosity: 0.519 ± 0.006 mPa·s
  mass density: 787.45 ± 0.15 kg/m3
323.15 K, m1 = 0.5005
  electrical conductivity: 0.709 ± 0.007 S/m
  viscosity: 0.549 ± 0.007 mPa·s
  mass density: 793.64 ± 0.15 kg/m3
323.15 K, m1 = 0.6006
  electrical conductivity: 0.782 ± 0.008 S/m
  viscosity: 0.583 ± 0.007 mPa·s
  mass density: 799.99 ± 0.15 kg/m3
323.15 K, m1 = 0.7007
  electrical conductivity: 0.833 ± 0.008 S/m
  viscosity: 0.617 ± 0.008 mPa·s
  mass density: 806.34 ± 0.15 kg/m3
323.15 K, m1 = 0.8007
  electrical conductivity: 0.889 ± 0.009 S/m
  viscosity: 0.661 ± 0.008 mPa·s
  mass density: 812.57 ± 0.15 kg/m3
323.15 K, m1 = 0.9008
  electrical conductivity: 0.927 ± 0.009 S/m
  viscosity: 0.707 ± 0.009 mPa·s
  mass density: 818.85 ± 0.15 kg/m3
323.15 K, m1 = 1.001
  electrical conductivity: 0.976 ± 0.01 S/m
  viscosity: 0.757 ± 0.009 mPa·s
  mass density: 825.02 ± 0.14 kg/m3
323.15 K, m1 = 1.2
  electrical conductivity: 1.017 ± 0.01 S/m
  viscosity: 0.866 ± 0.011 mPa·s
  mass density: 837.66 ± 0.14 kg/m3
323.15 K, m1 = 1.401
  electrical conductivity: 1.042 ± 0.01 S/m
  viscosity: 1.016 ± 0.013 mPa·s
  mass density: 850.96 ± 0.14 kg/m3
323.15 K, m1 = 1.6
  electrical conductivity: 1.045 ± 0.01 S/m
  viscosity: 1.199 ± 0.015 mPa·s
  mass density: 863.7 ± 0.14 kg/m3
323.15 K, m1 = 1.801
  electrical conductivity: 1.032 ± 0.01 S/m
  viscosity: 1.436 ± 0.018 mPa·s
  mass density: 877.22 ± 0.13 kg/m3
323.15 K, m1 = 2
  electrical conductivity: 0.996 ± 0.01 S/m
  viscosity: 1.748 ± 0.022 mPa·s
  mass density: 890.65 ± 0.13 kg/m3
323.15 K, m1 = 2.203
  electrical conductivity: 0.933 ± 0.009 S/m
  viscosity: 2.13 ± 0.026 mPa·s
  mass density: 904.77 ± 0.13 kg/m3
323.15 K, m1 = 2.403
  electrical conductivity: 0.866 ± 0.009 S/m
  viscosity: 2.685 ± 0.033 mPa·s
  mass density: 918.16 ± 0.12 kg/m3
323.15 K, m1 = 2.603
  electrical conductivity: 0.781 ± 0.008 S/m
  viscosity: 3.381 ± 0.042 mPa·s
  mass density: 931.01 ± 0.12 kg/m3
323.15 K, m1 = 2.803
  electrical conductivity: 0.708 ± 0.007 S/m
  viscosity: 4.325 ± 0.053 mPa·s
  mass density: 944.56 ± 0.12 kg/m3
323.15 K, m1 = 3.006
  electrical conductivity: 0.636 ± 0.006 S/m
323.15 K, m1 = 3.001
  viscosity: 5.906 ± 0.073 mPa·s
  mass density: 958.45 ± 0.12 kg/m3
